The text below walks through data of ChEMBL document CHEMBL1123820 (J Med Chem, 1987).

The source made the active and inactive calls. No cut-off for these calls is given here. Where a SMILES comes first, the peptide text is derived from it. [ ]: non-standard residue; d: D form. The star is where a group is joined. Orn = NCCC[C@H](N)C(=O)O; OBn = c1ccc(CO*)cc1 Where only a bound is given, the exact number is not on record here.

The species named for one experiment is Cavia porcellus. Briefly: Relative activity was measured in vitro with respect to substance P (SP) in guinea pig ileum. It counts as functional.
Conditions: not given
As for `CC(C)C[C@H](NC(=O)CNC(=O)[C@H](Cc1ccccc1)NC(=O)[C@H](Cc1ccccc1)NC(=O)[C@@H](N)CCCN)C(=O)N[C@@H](CCC(=O)OCc1ccccc1)C(N)=O` (H-[Orn]FFGLE(OBn)-NH2), the Relative activity is on record as 0.14.
For `CC(C)C[C@H](NC(=O)CNC(=O)[C@H](Cc1ccccc1)NC(=O)[C@H](Cc1ccccc1)NC(=O)[C@@H](N)CCCN)C(=O)N[C@@H](CCC(=O)O)C(N)=O` (H-[Orn]FFGLE-NH2), the Relative activity amounted to 0.00058.
`CSCC[C@H](NC(=O)[C@H](CC(C)C)NC(=O)CNC(=O)[C@H](Cc1ccccc1)NC(=O)[C@H](Cc1ccccc1)NC(=O)[C@@H](N)CCCN)C(N)=O` (H-[Orn]FFGLM-NH2) gave a Relative activity of 0.39.
In turn, `CC(C)C[C@H](NC(=O)CNC(=O)[C@H](Cc1ccccc1)NC(=O)[C@H](Cc1ccccc1)NC(=O)[C@@H](N)CCCN)C(=O)N[C@@H](CCC(N)=O)C(N)=O` (H-[Orn]FFGLQ-NH2) registered a Relative activity of 0.0022.
Consider H-QFFGLM-NH2, for which the Relative activity amounted to 0.3.

The species named for the next experiment is Rattus norvegicus. Put plainly: Relative activity was measured in vitro with respect to substance P (SP) in rat colon muscularis mucosae at a concentration of 10 uM; Inactive. It counts as functional. Conditions: Muscularis mucosa.
Regarding `CC(C)C[C@H](NC(=O)CNC(=O)[C@H](Cc1ccccc1)NC(=O)[C@H](Cc1ccccc1)NC(=O)[C@@H](N)CCCN)C(=O)N[C@@H](CCCCN)C(N)=O` (H-[Orn]FFGLK-NH2), the Relative activity entry was “inactive”.

The species named for the next experiment is Cavia porcellus. Put plainly: Relative activity was measured in vitro with respect to substance P (SP) in guinea pig ileum at a concentration of 10 uM; Inactive. It counts as functional.
Conditions: not given
On to `CC(C)C[C@H](NC(=O)CNC(=O)[C@H](Cc1ccccc1)NC(=O)[C@H](Cc1ccccc1)NC(=O)[C@@H](N)CCCN)C(=O)N[C@@H](CCCCN)C(N)=O` (H-[Orn]FFGLK-NH2), for which the Relative activity entry is “inactive”.

The next experiment is filed under the species Rattus norvegicus. Put plainly: Relative activity was measured in vitro with respect to substance P (SP) in rat colon muscularis mucosae. It counts as functional, Muscularis mucosa.
Conditions: not given
The compound `CC(C)C[C@H](NC(=O)CNC(=O)[C@H](Cc1ccccc1)NC(=O)[C@H](Cc1ccccc1)NC(=O)[C@@H](N)CCCN)C(=O)N[C@@H](CCC(=O)OCc1ccccc1)C(N)=O` (H-[Orn]FFGLE(OBn)-NH2) yielded a Relative activity of 0.61.
For `CC(C)C[C@H](NC(=O)CNC(=O)[C@H](Cc1ccccc1)NC(=O)[C@H](Cc1ccccc1)NC(=O)[C@@H](N)CCCN)C(=O)N[C@@H](CCC(=O)O)C(N)=O` (H-[Orn]FFGLE-NH2), the Relative activity is listed as under 0.01.
Consider `CSCC[C@H](NC(=O)[C@H](CC(C)C)NC(=O)CNC(=O)[C@H](Cc1ccccc1)NC(=O)[C@H](Cc1ccccc1)NC(=O)[C@@H](N)CCCN)C(N)=O` (H-[Orn]FFGLM-NH2), for which the Relative activity stood at 0.36.
Same read-out and setting: with `CC(C)C[C@H](NC(=O)CNC(=O)[C@H](Cc1ccccc1)NC(=O)[C@H](Cc1ccccc1)NC(=O)[C@@H](N)CCCN)C(=O)N[C@@H](CCC(N)=O)C(N)=O` (H-[Orn]FFGLQ-NH2) the figure was under 0.01; with H-QFFGLM-NH2, 0.076.
